Data published in PubChem BioAssay (NCI).
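All cell lines were grown in 96-well plates and treated with compound for 48 hours. Here, GI50 denotes the concentration required for 50% inhibition of growth. At the TGI there is no net growth.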 Non-standard residues stand in square brackets, D forms with d. Residues, ends and D or L forms follow the SMILES beside them. *: point of attachment. ONb = O=[N+]([O-])c1ccc(CO*)cc1; AllylGly = C=CC[CH](N)C(=O)O; Boc = CC(C)(C)OC(=O)*

What was measured:
Assay in all cases: DTP human tumour cell line panel, 48 h
[1] = system: U251 CNS
[2] = system: HL-60(TB) leukemia
[3] = system: UACC-62 melanoma
[4] = system: HT29 colon
[5] = system: SF-539 CNS
[6] = system: A498 renal
[7] = system: NCI/ADR-RES ovarian
[8] = system: SF-295 CNS
[9] = system: M14 melanoma
[10] = system: NCI-H522 lung

| Structure (SMILES) | GI50 [1] | TGI [1] | GI50 [2] | TGI [2] | GI50 [3] | TGI [3] | GI50 [4] | TGI [4] | GI50 [5] | TGI [5] | GI50 [6] | TGI [6] | GI50 [7] | TGI [7] | GI50 [8] | TGI [8] | GI50 [9] | TGI [9] | TGI [10] | GI50 [10] |
| --- | --- | --- | --- | --- | --- | --- | --- | --- | --- | --- | --- | --- | --- | --- | --- | --- | --- | --- | --- | --- |
| N=C1C(c2nc(-c3ccc(Br)cc3)cs2)=C(O)CN1Cc1cccnc1 | 22100 nM | > 100 µM | 3.42 µM | 20.2 µM | 6.92 µM | 30.6 µM | 13400 nM | > 100 µM | 15.5 µM | 84.8 µM | 1900 nM | 5.23 µM | 16.3 µM | > 100 µM | 16.6 µM | 81.3 µM |  |  |  |  |
| C=C1C(=O)O[C@H]2[C@H]1CC/C(Cn1cc(CNC(=O)Cc3cn(C(=O)c4ccc(Cl)cc4)c4ccc(OC)cc34)nn1)=C\CC[C@@]1(C)O[C@@H]21 | 1890 nM | 3.55 µM |  |  | 1.63 µM | 3.18 µM | 1670 nM | 3.5 µM | 1.57 µM | 2.96 µM | 2510 nM | 8.24 µM | 46.3 µM | > 100 µM | 5.78 µM | 25.7 µM | 1650 nM | 3.28 µM |  |  |
| CC(=O)C1CC(C)=CCC12C(=O)Nc1ccccc12 (stereo not drawn) |  | > 100 µM |  | > 100 µM |  | > 100 µM |  | > 100 µM |  | > 100 µM |  | > 100 µM |  |  |  | > 100 µM |  | > 100 µM | > 100 µM |  |
| COc1ccc2cc(C(=O)/C=C/c3cc(OC)c(OC)c(OC)c3)ccc2c1 | 1680 nM | 9.48 µM | 5.34 µM | 20.9 µM | 5.25 µM | 12.7 µM | 2720 nM | 19.7 µM |  |  |  |  |  |  | 13 µM | > 50 µM | 6520 nM | 16.1 µM |  |  |
| O=C(O)CSc1n[nH]c(-c2ccc(O)cc2)n1 |  | > 100 µM |  | > 100 µM |  | > 100 µM |  | > 100 µM |  | > 100 µM |  | > 100 µM |  |  |  | > 100 µM |  | > 100 µM | > 100 µM |  |
| O=C(O)c1c(-c2cccc3ccccc23)sc(-c2cccc3ccccc23)c1C(=O)O |  | > 100 µM |  | > 100 µM |  | > 100 µM |  | > 100 µM |  | > 100 µM |  |  |  |  |  | > 100 µM |  | > 100 µM | > 100 µM |  |
| O=C(Nc1ccc(N2CCNCC2)cc1)c1[nH]ncc1Nc1ncnc2sc3c(c12)CCC3 | 108 nM | 0.244 µM | 1.2 µM | 3.28 µM | 1.07 µM | 2.31 µM |  |  | 0.399 µM | 1.81 µM | 188 nM | 1.58 µM | 1.48 µM | 3.7 µM | 0.359 µM | 1.95 µM | 146 nM | 1.64 µM |  |  |
| COc1cc(OC)c([C@@H]2OC(=O)C3C2C(=O)O[C@H]3c2cc(OC)c(OC)cc2OC)cc1OC (stereo partly drawn) |  | > 100 µM |  | > 100 µM |  | > 100 µM |  | > 100 µM |  | > 100 µM |  | > 100 µM |  |  |  | > 100 µM |  | > 100 µM |  |  |
| COc1ccc2c(c1)[nH]c(=O)c1c3cc(C)c(C)cc3cn21 | < 10 nM | 1.2 µM | < 0.01 µM | < 0.013 µM | < 0.0204 µM | 5.32 µM | < 10 nM |  | 0.0186 µM | 0.0578 µM | < 10 nM | < 0.0295 µM |  |  | < 0.01 µM |  | < 10 nM | 1.2 µM | < 0.0275 µM | < 0.0115 µM |
| CCOC(=O)[C@@]1(C)C=C2O[C@@H]3OC4(CCCCC4)O[C@@H]3C2=C2C(O)=CC=C(O)[C@]21C(=O)OC |  | > 68 µM |  | > 68 µM |  | > 68 µM |  | > 68 µM |  |  |  | > 68 µM |  |  |  | > 68 µM |  | > 68 µM | > 68 µM |  |
| Cn1c2c(c3ccccc31)CCN(CCCCN1CCc3c(n(C)c4ccccc34)C1=O)C2 |  | > 100 µM |  | > 100 µM |  | > 100 µM |  | > 100 µM |  | > 100 µM |  | > 100 µM |  |  |  | > 100 µM |  | > 100 µM | > 100 µM |  |
| CNC(P(=O)([O-])[O-])P(=O)([O-])[O-].N.N.[Pt+2] | > 100000 nM | > 100 µM |  |  | > 100 µM | > 100 µM |  |  | > 100 µM | > 100 µM |  |  |  |  | > 100 µM | > 100 µM | > 100000 nM | > 100 µM | > 100 µM | > 100 µM |
| Cc1cc(C)nc(NS(=O)(=O)c2ccc(Nc3c4ccccc4nc4c(C(=O)Nc5ccc(S(=O)(=O)N=C(N)N)cc5)ccc(Cl)c34)cc2)n1 |  | 34.6 µM |  | 54 µM |  | 36.9 µM |  | > 100 µM |  | 45.6 µM |  | > 100 µM |  |  |  | > 100 µM |  | > 100 µM | 29.4 µM |  |
| O=C1C(=O)N(C(=O)c2ccc(Cl)c(Cl)c2)c2ccccc21 |  | > 100 µM |  | > 100 µM |  | > 100 µM |  | > 100 µM |  | > 100 µM |  |  |  |  |  | > 100 µM |  | > 100 µM |  |  |
| O=c1oc2cc(OS(=O)(=O)c3ccc(F)cc3)ccc2c2c1CCCCC2 | > 100000 nM | > 100 µM | > 100 µM | > 100 µM |  |  | 1040 nM | > 100 µM | > 100 µM | > 100 µM | > 100000 nM | > 100 µM | > 100 µM | > 100 µM | > 100 µM | > 100 µM | > 100000 nM | > 100 µM |  |  |
| COc1ccc(Cl)cc1Nc1nc(C(F)(F)F)ccc1C(=O)N/N=C/c1c(Cl)cccc1Cl | 4970 nM | > 100 µM | 4.87 µM | 41.6 µM | 7.16 µM | > 100 µM | > 100000 nM | > 100 µM | 17.9 µM | > 100 µM | 12300 nM | > 100 µM |  |  | 3.34 µM | 72.6 µM |  |  | > 100 µM | 13.3 µM |
| C=CCC(NC(=O)OC(C)(C)C)C(=O)NC(CCC(=O)OCc1ccc([N+](=O)[O-])cc1)C(N)=O (stereo not drawn) (Boc-[AllylGly]-Glu(ONb)-NH2; configuration not given here) | 65.2 µg/mL |  | 53.1 µg/mL |  | 19.5 µg/mL | 38.9 µg/mL |  |  | 20.6 µg/mL | 37.6 µg/mL | 13.4 µg/mL | 27.9 µg/mL |  |  | 16.9 µg/mL | 37.9 µg/mL | 33 µg/mL |  |  | 28.1 µg/mL |
| CC(=O)O/C=C(/C=C/OC(C)=O)C(C/C=C(\C)C#CC=C(C)C)OC(C)=O (stereo not drawn) |  | > 100 µM |  | 42.4 µM |  | 77.7 µM |  | > 100 µM |  | 54.6 µM |  | > 100 µM |  |  |  | > 100 µM |  | 98.6 µM | 73.7 µM |  |
